Laboratory results as given in patent publication US6034215A, “3-amino-2-oxo-1-piperidnercetic derivatives as enzyme inhibitors” (Corvas International, Inc., priority 1997, dated 2000).
Read-outs that look alike come from different tables or passages of the source.

How the values were obtained:
Human rt-PA (Activase®) = target: T1, Human rt-PA (Activase®) (Homo sapiens, UniProt P00750); test: In vitro enzyme assay for specificity: recombinant tissue plasminogen activator, IC50; type: biochemical; details: Table 3
T1 construct: purchased Genentech Inc. Activase®
T1 sequence (P00750 36-562): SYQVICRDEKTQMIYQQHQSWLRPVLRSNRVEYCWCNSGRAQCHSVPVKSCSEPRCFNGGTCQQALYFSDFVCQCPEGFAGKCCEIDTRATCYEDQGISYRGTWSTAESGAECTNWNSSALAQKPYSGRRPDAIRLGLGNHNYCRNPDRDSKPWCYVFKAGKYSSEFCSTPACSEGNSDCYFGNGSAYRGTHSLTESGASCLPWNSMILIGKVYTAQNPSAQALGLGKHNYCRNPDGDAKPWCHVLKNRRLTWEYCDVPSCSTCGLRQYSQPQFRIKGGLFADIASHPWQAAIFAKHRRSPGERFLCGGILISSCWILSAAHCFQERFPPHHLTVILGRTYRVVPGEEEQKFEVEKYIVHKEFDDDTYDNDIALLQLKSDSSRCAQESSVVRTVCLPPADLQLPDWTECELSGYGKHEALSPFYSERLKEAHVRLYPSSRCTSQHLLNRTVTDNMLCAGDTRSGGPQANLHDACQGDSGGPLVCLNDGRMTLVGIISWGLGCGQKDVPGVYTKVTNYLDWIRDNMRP
Method: The buffer used for all assays was HBSA (10 mM HEPES, pH 7.5, 150 mM sodium chloride, 0.1% bovine serum albumin). […] Following a 30-minute incubation at ambient temperature, 50 microliters of the substrate at the concentrations specified below, was added to the wells yielding a final total volume of 200 microliters. The initial velocity of chromogenic substrate hydrolysis was measured by the change in absorbance at 405nm using a Thermo Max® Kinetic Microplate Reader over a 5 minute period in which less than 5% of the added substrate was utilized.
rt-PA catalytic activity was determined using the substrate, Pefachrome t-PA (CH3SO2-D-hexahydrotyrosine-glycyl-L-arginine-p-nitroanilide, obtained from Pentapharm Ltd.). […] Human rt-PA (Activase®) was obtained from Genentech Inc. The enzyme was reconstituted in deionized water and diluted into HBSA prior to the assay in which the final concentration was 1.0 nM.

[1] = target: T2, bovine pancreatic trypsin (Bos taurus, UniProt P00760); test: In vitro enzyme assay for specificity: trypsin, IC50; type: biochemical; details: Table 2
T2 sequence (P00760 24-246): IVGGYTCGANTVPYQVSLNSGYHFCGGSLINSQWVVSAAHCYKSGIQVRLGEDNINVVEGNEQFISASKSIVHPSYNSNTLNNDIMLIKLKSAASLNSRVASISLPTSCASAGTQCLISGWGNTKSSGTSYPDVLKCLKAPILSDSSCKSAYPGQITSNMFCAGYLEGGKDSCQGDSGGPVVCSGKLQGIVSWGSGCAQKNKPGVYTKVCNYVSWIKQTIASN
Method: Trypsin catalytic activity was determined using the chromogenic substrate, S-2222 (benzoyl-L-isoleucine-L-glutamic acid-(gamma-methyl ester)-L-arginine-p-nitroanilide), which was obtained from Kabi Diagnostica. […] Purified (3×-crystallized; TRL3) bovine pancreatic trypsin was obtained from Worthington Biochemical Corp. The enzyme was reconstituted in deionized water and diluted into HBSA prior to assay in which the final concentration was 0.5 nM.

[2] = tested on: FeCl3 -induced Platelet-dependent Arterial Thrombosis; test: Rat model of FeCl3 -induced platelet-dependent arterial thrombosis; type: in vivo; details: for ED50 for thrombus prevention (dose that prevents complete thrombotic occlusion in 50% of animals tested): rat FeCl3 model of arterial thrombosis; for Incidence of Occlusion: rat
Description: This is a well characterized model of platelet dependent, arterial thrombosis which has been used in the evaluation potential antithrombotic compounds such as direct thrombin inhibitors. Kurz, K. D., Main, B. W., and Sandusky, G. E., Thromb. Res., 60: 269-280 (1990). In this model a platelet-rich, occlusive thrombus is formed in a segment of the rat carotid artery treated locally with a fresh solution of FeCl3 absorbed to a piece of filter paper. The FeCl3 is thought to diffuse into the treated segment of artery and causes de-endothelialization of the affected vessel surface. […] The effect of a test compound on the incidence of occlusive thrombus formation following the application of the FeCl3 is monitored by ultrasonic flowtometry and is used as the primary end point. The use of flowtometry to measure carotid artery blood flow, is a modification of the original procedure in which thermal detection of clot formation was employed. Kurz, K. D., Main, B. W., and Sandusky, G. E., Thromb. Res., 60: 269-280 (1990).
Male Harlan Sprague Dawley rats (420-450 g) were acclimated at least 72 hours prior to use and fasted for 12 hours prior to surgery with free access to water. The animals were prepared, anesthetized with Nembutal followed by the insertion of catheters for blood pressure monitoring, drug and anesthesia delivery. The left carotid artery was isolated by making a midline cervical incision followed by blunt dissection and spreading techniques to separate a 2 cm segment of the vessel from the carotid sheath. A silk suture is inserted under the proximal and distal ends of the isolated vessel to provide clearance for the placement of a ultrasonic flow probe (Transonic) around the proximal end of the vessel. The probe is then secured with a stationary arm.
Following surgery the animals were randomized in either a control (saline) or treatment group with test compound (BzlSO2 -norVal(cyclo)-Gly-Arg-al or N-(BnSO2 -norLeu(cyclo)Gly)-L-argininal)with at least 6 animals per group per dose. The test compound was administered as a single intravenous bolus at the doses outlined in Table 3 after placement of the flow probe and 5 minutes prior to the thrombogenic stimulus. At t=0, a 3 mm diameter piece of filter paper (Whatman #3) soaked with 10 microliters of a 35% solution of fresh FeCl3 (made up in water) was applied the segment of isolated carotid artery distal to the flow probe. Blood pressure, blood flow, heart rate, and respiration were monitored for 60 minutes.
The incidence of occlusion (defined as the attainment of zero blood flow) was recorded as the primary end point.
This allows a direct comparison of the antithrombotic efficacy of BzlSO2 -norVal(cyclo)-Gly-Arg-al and N-(BnSO2 -norLeu(cyclo)-Gly)-L-argininal with other antithrombotic agents which have also been evaluated in this model as described above. Table 6 lists the ED50 values for several well known anticoagulant agents in this model compared to the present compounds.

citrated rat plasma = test: Anticoagulant effect in rat plasma, activated partial thromboplastin time (APTT) assay; type: biochemical; details: for prolongation of the APTT: rat plasma, broad concentration range of added inhibitor
Method: (§1) The ex vivo anticoagulant effects of BzlSO2 -norVal (cyclo)-Gly-Arg-al(Example 8) and N-(BnSO2 -norLeu (cyclo)-Gly)-L-argininal (Example 34) were determined by measuring the prolongation of the activated partial thromboplastin time (APTT) over a broad concentration range of the added inhibitor, using pooled normal human and rat plasma.
(§2) Fresh frozen citrated pooled normal human plasma was obtained from George King Biomedical, Overland Park, Kans. Pooled normal rat plasma was prepared from citrated whole blood collected from anesthetized rats using standard procedures. The plasma was flash frozen and stored at -80° C. until use.
(§3) Measurements APTT was made using the Coag-A-Mate RA4 automated coagulometer (General Diagnostics, Organon Technica, Oklahoma City, Okla.) using the Automated APTT reagent (Organon Technica, Durham, N.C.) as the initiator of clotting according to the manufacturers instructions. The assay was conducted by making a series of dilutions of the test compounds in rapidly thawed plasma followed by adding 200 microliters to the wells of the assay carousel.

citrated human plasma = test: Anticoagulant effect in human plasma, activated partial thromboplastin time (APTT) assay; type: biochemical; details: for concentration which caused a doubling of the control clotting time (APTT): citrated human plasma, mean of two independent determinations; for prolongation of the APTT: human plasma, broad concentration range of added inhibitor
Method: as §1, §2, §3

human aPC = target: T3, human aPC (Homo sapiens, UniProt P04070); test: In vitro enzyme assay for specificity: activated protein C, IC50; type: biochemical; details: Table 3
T3 construct: purchased Hematologic Technologies, Inc
T3 sequence (P04070 43-197 limits assumed): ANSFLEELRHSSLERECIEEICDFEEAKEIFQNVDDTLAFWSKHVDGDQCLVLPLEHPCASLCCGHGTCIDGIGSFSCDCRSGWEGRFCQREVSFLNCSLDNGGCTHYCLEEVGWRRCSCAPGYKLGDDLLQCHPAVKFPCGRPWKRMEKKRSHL
T3 sequence (P04070 212-461 limits assumed): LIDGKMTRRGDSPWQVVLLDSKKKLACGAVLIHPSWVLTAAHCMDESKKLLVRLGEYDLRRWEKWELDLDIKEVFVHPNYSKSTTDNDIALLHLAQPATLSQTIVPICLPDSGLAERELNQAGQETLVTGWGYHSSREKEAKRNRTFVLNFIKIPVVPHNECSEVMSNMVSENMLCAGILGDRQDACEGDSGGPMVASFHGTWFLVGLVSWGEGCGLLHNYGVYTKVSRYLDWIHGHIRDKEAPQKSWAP
Method: aPC catalytic activity was determined using the chromogenic substrate, Pefachrome PC (delta-carbobenzloxy-D-lysine -L-prolyl-L-arginine-p-nitroanilide), obtained from Pentapharm Ltd.). […] Purified human aPC was obtained from Hematologic Technologies, Inc. The enzyme was diluted into HBSA prior to assay in which the final concentration was 1.0 nM.

[3] = Oral activity in dogs: blood levels and bioavailability; type: in vivo, beagle dogs
Method: The pharmacodynamic and pharmacokinetic parameters of the compound of Example 34 were evaluated after oral administration in dogs. Adult beagle dogs (9-12 kg) were housed individually in standard cages, and were fed a standard certified commercial diet and tap water ad libitum. Dogs were given an oral dose of 20 mg/kg test compound, in 55 ml deionized water, via a gastric tube, followed by a water rinse. In a separate protocol, 5 mg/kg of test compound, in 5 ml 0.9% sodium chloride, were administered by fast bolus i.v. injection through an indwelling saphenous vein catheter. The same dogs were used for both routes of administration, with a one week wash out period between use of the dogs for the different protocols. […]
(§4) The blood levels of test compound were measured by extracting the compound from plasma, separation by HPLC, and post-column derivatization with a fluorogenic functional group. The clotting time of blood was measured using an APTT assay, which measures the prolongation of the activated partial thromboplastin time (APTT) by the test compound. […]
The systemic bioavailability of the test compound administered by the oral route was calculated by comparing the AUC values (area under curve describing level of compound in blood over time) after i.v. and oral administration. […]

[4] = tested on: activated partial thromboplastin time (APTT); test: Oral activity in dogs: clotting time of blood samples by APTT assay; type: in vivo, beagle dogs; details: after oral dosing
Method: The pharmacodynamic and pharmacokinetic parameters of the compound of Example 34 were evaluated after oral administration in dogs. Adult beagle dogs (9-12 kg) were housed individually in standard cages, and were fed a standard certified commercial diet and tap water ad libitum. Dogs were given an oral dose of 20 mg/kg test compound, in 55 ml deionized water, via a gastric tube, followed by a water rinse. In a separate protocol, 5 mg/kg of test compound, in 5 ml 0.9% sodium chloride, were administered by fast bolus i.v. injection through an indwelling saphenous vein catheter. The same dogs were used for both routes of administration, with a one week wash out period between use of the dogs for the different protocols.
After mixing with the anticoagulant, each blood sample was immediately chilled by immersion in a slurry of ice and water. The plasma was separated by centrifugation (4° C., 2400 rpm, 10 min) within 10 min of collection, and then transferred to a cryotube and stored at […] until analysis.
as §4

human alpha-thrombin = human alpha-thrombin (Homo sapiens, UniProt P00734); test: Kinetic analysis in an in vitro thrombin inhibition assay (Ki); type: biochemical; details: Table 1; Mean ± SD, n = 3; steady state velocities over 40 minutes
Method: Enzyme activity was determined using the chromogenic substrate Pefachrome t-PA (CH3SO2-D-hexahydrotyrosine-glycyl -L-arginine-p-Nitroanilide), obtained from Pentapharm Ltd. The substrate was reconstituted in deionized water prior to use. Purified human alpha-thrombin (3000U/mg specific activity) was obtained from Enzyme Research Laboratories, Inc. The buffer used for all assays was HBSA (10 mM HEPES, pH 7.5, 150 mM sodium chloride, 0.1% bovine serum albumin).
Velocities of chromogenic substrate hydrolysis which occurred over 40 minutes was measured by the change in absorbance at 405 nm using a Thermo Max® Kinetic Microplate Reader. […] The extent of substrate hydrolysis was less than 5% over the course of this assay.

human α-thrombin = human α-thrombin (Homo sapiens, UniProt P00734); test: In vitro enzyme assay for specificity: Thrombin (fIIa) assay, IC50; type: biochemical
Method: IC50 determinations were conducted where HBSA (50 μL), α-thrombin (50 μl) and inhibitor (50 μl) (covering a broad concentration range), were combined in appropriate wells and incubated for 30 minutes at room temperature prior to the addition of substrate Pefachrome-t-PA (50 μl).

[5] = 0.3 mg/kg single intravenous bolus 5 minutes prior to FeCl3, n 6, monitored 60 minutes
[6] = 1.0 mg/kg single intravenous bolus 5 minutes prior to FeCl3, n 6, monitored 60 minutes
[7] = 3.0 mg/kg single intravenous bolus 5 minutes prior to FeCl3, n 6, monitored 60 minutes
[8] = 5.0 mg/kg single intravenous bolus 5 minutes prior to FeCl3, n 6, monitored 60 minutes

NC(N)=NCCC[C@@H](C=O)NC(=O)CN1CCCC(NS(=O)(=O)Cc2ccccc2)C1=O (stereo partly drawn) [Example 8, N-benzylsulfonyl-norVal(cyclo)-Gly-L-argininal]
IC50 (Human rt-PA (Activase®)): > 2500 nM | IC50 [1]: 1550 nM | ED50 for thrombus prevention (dose that prevents complete thrombotic occlusion in 50% of animals tested) [2]: 0.75 mg/kg | Incidence of Occlusion [2, 5]: 6/6 | Incidence of Occlusion [2, 6]: 2/6 | Incidence of Occlusion [2, 7]: 1/6 | Incidence of Occlusion [2, 8]: 0/6 | concentration which caused a doubling of the control clotting time (APTT) (citrated rat plasma; citrated rat plasma, control clotting time 20 sec, mean of two independent determinations): 22.1 µM | prolongation of the APTT (citrated rat plasma): prolonged the APTT in a dose-dependent manner | concentration which caused a doubling of the control clotting time (APTT) (citrated human plasma): 12.8 µM | prolongation of the APTT (citrated human plasma): prolonged the APTT in a dose-dependent manner | IC50 (human aPC): > 2500 nM

NC(N)=NCCC[C@@H](C=O)NC(=O)CN1CCCCC(NS(=O)(=O)Cc2ccccc2)C1=O (stereo partly drawn) [Example 34, N-(BnSO2 -norLeu(cyclo)-Gly)-L-argininal]
IC50 [1]: 72 nM | time at which blood level of compound reached maximum levels ([3]; after administration): 30 to 40 min | systemic bioavailability (ratio of AUC oral to AUC i.v.) ([3]; oral 20 mg/kg vs i.v. 5 mg/kg, corrected for difference in dose): approximately 66% | time to significant elevation of APTT [4]: 20 to 30 min | ED50 for thrombus prevention (dose that prevents complete thrombotic occlusion in 50% of animals tested) [2]: 2.1 mg/kg | Incidence of Occlusion [2, 5]: 6/6 | Incidence of Occlusion [2, 6]: 6/6 | Incidence of Occlusion [2, 7]: 2/6 | Incidence of Occlusion [2, 8]: 2/6 | prolongation of the APTT (citrated rat plasma): prolonged the APTT in a dose-dependent manner | Ki (human alpha-thrombin): 0.538 ± 0.08 nM | concentration which caused a doubling of the control clotting time (APTT) (citrated human plasma): 4.5 µM | prolongation of the APTT (citrated human plasma): prolonged the APTT in a dose-dependent manner | IC50 (human α-thrombin; Table 2, 30-minute incubation with enzyme before substrate, read-out: IC50 alpha-thrombin): 0.93 nM | IC50 (human α-thrombin; Table 3, read-out: IC50 (nM) thrombin): 0.71 nM
